We go through 20 molecules from patent US12441725B2, “ISO-citrate dehydrogenase (IDH) inhibitor” (ZHEJIANG METON PHARMACEUTICAL CO., LTD, priority 2019, dated 2025).

One assay has as its target T1, IDH1 R132H (Homo sapiens, UniProt O75874, R132H).
T1 construct: 6xHis
Nature of the assay: Biochemical assay for IDH inhibition (NADPH fluorescence), mutant IDH1 R132H. The note with it: 50 nM IDH1-R132H, 1 hour pre-incubation, in triplet. Put shortly: (§1)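 The read-out was the linear-phase loss of NADPH fluorescence (340/460 nm) over 15 min, background-subtracted and normalized to DMSO wells, giving triplicate IC50 values. Beforehand, R132H (50 nM) or R132C (25 nM) was exposed to compound for 1 h at room temperature with 1.33 mM α-KG at pH 7.5, and the reaction was triggered by adding an 80 μM NADPH solution.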

In a further assay the target is T2, IDH1 R132C (Homo sapiens, UniProt O75874, R132C).
T2 construct: 6xHis
Nature of the assay: Biochemical assay for IDH inhibition (NADPH fluorescence), mutant IDH1 R132C. The following applies: 25 nM IDH1-R132C, 1 hour pre-incubation, in triplet. In short, it runs like this: as §1

Assay [1] has as its target T3, IDH (endogenous IDH1 R132C) in HT1080 cell (Homo sapiens, UniProt O75874, R132C).
T3 construct: which harbor endogenous heterozygous IDH1 R132C and R132H mutation respectively and accumulate D-2-HG
Briefly: Cell-based assay for IDH inhibition (decrease of D-2-HG) in HT1080 cells. The note with it: human fibrosarcoma cell line HT1080, 16 hours treatment, D-2-HG by LC-MS, in triplet. Put shortly:
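LC-MS/MS quantification of D-2-HG, normalized to glutamate, follows a 16 h compound exposure of IDH1 R132C HT1080 cells in DMEM with 10% FBS. Extraction uses pre-chilled 40% methanol/40% acetonitrile in water. Triplicate determinations; IC50 from D-2-HG levels relative to DMSO-treated cells.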

T1 sequence (O75874 whole entry R132H): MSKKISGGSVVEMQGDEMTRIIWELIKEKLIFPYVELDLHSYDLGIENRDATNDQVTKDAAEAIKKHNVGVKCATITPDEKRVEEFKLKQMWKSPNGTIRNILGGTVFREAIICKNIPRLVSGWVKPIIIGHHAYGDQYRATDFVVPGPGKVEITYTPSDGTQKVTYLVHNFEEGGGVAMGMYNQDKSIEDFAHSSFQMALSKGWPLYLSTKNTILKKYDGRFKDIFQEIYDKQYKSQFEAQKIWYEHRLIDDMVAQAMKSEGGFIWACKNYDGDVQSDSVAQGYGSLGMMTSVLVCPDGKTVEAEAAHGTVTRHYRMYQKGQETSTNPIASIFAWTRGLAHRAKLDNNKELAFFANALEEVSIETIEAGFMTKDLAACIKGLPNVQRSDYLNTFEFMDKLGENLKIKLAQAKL
T2 sequence (O75874 whole entry R132C): as the sequence (O75874 whole entry R132H) above, with H132C counted along it
T3 sequence (O75874 2-414 R132C): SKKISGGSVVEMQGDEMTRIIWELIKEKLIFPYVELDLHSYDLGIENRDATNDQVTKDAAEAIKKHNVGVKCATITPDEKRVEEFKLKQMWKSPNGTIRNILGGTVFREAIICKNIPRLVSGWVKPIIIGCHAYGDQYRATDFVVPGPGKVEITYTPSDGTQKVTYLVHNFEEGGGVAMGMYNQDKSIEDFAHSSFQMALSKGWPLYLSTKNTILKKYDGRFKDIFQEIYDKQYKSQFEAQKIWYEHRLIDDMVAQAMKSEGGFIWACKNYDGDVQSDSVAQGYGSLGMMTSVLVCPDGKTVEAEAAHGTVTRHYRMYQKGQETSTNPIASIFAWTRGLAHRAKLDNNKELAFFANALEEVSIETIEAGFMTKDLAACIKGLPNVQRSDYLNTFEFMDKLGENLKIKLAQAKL

For the molecule `CCN1Cc2c(ccnc2N[C@@H](C)c2cc(F)c(-c3cc(C(C)(C)F)ccn3)cc2F)C1=O` [Compound 112, (S)-4-((1-(2,5-difluoro-4-(4-(2-fluoropropan-2-yl)pyridin-2-yl)phenyl)ethyl)amino)-2-ethyl-2,3-dihydro-1H-pyrrolo[3,4-c]pyridin-1-one], the IC50 (at IDH1 R132H; at IDH1 R132C; in assay [1]) was < 100 nM each time.

Consider `CCN1Cc2c(ccnc2N[C@@H](C)c2cc(F)c(-c3cc(C(C)(C)F)cc(C)n3)cc2F)C1=O` [Compound 113, (S)-4-((1-(2,5-difluoro-4-(4-(2-fluoropropan-2-yl)-6-methylpyridin-2-yl)phenyl)ethyl)amino)-2-ethyl-2,3-dihydro-1H-pyrrolo[3,4-c]pyridin-1-one], for which the IC50 (at IDH1 R132H; on IDH1 R132C; in assay [1]) was < 100 nM throughout.

On to `CCN1Cc2c(ccnc2N[C@@H](C)c2cc(F)c(-c3cc(C#N)ccn3)cc2F)C1=O` [Compound 114, (S)-2-(4-(1-((2-ethyl-1-oxo-2,3-dihydro-1H-pyrrolo[3,4-c]pyridin-4-yl)amino)ethyl)-2,5-difluorophenyl)isonicotinonitrile], for which the IC50 (as a rule, the concentration that gives 50% inhibition) was > 1000 nM on IDH1 R132H, > 1000 nM at IDH1 R132C and 500 to 1000 nM in assay [1].

Take `CCN1Cc2c(ccnc2N[C@@H](C)c2cc(F)c(-c3cc(C(F)(F)F)ccn3)cc2F)C1=O` [Compound 115, (S)-4-((1-(2,5-difluoro-4-(4-(trifluoromethyl)pyridin-2-yl)phenyl)ethyl)amino)-2-ethyl-2,3-dihydro-1H-pyrrolo[3,4-c]pyridin-1-one]: the figures for the IC50 (on IDH1 R132H; at IDH1 R132C; in assay [1]) were < 100 nM, 100 to 500 nM and 100 to 500 nM, respectively.

On to `CCN1Cc2c(ccnc2N[C@@H](C)c2cc(F)c(-c3cc(C(C)(C)C)ncc3OC)cc2F)C1=O` [Compound 116, (S)-4-((1-(4-(2-(tert-butyl)-5-methoxypyridin-4-yl)-2,5-difluorophenyl)ethyl)amino)-2-ethyl-2,3-dihydro-1H-pyrrolo[3,4-c]pyridin-1-one], for which the IC50 (on IDH1 R132H; on IDH1 R132C; in assay [1]) was < 100 nM throughout.

As for `CCN1Cc2c(ccnc2N[C@@H](C)c2cc(F)c(-c3nc(C(C)(C)C)ccc3OC)cc2F)C1=O` [Compound 117, (S)-4-((1-(4-(6-(tert-butyl)-3-methoxypyridin-2-yl)-2,5-difluorophenyl)ethyl)amino)-2-ethyl-2,3-dihydro-1H-pyrrolo[3,4-c]pyridin-1-one], the IC50 (at IDH1 R132H; on IDH1 R132C; in assay [1]) was < 100 nM each time.

Regarding `CCN1Cc2c(ccnc2N[C@@H](C)c2cc(F)c(-c3cc(C(C)(C)F)cc(CF)n3)cc2F)C1=O` [Compound 118, (S)-4-((1-(2,5-difluoro-4-(6-(fluoromethyl)-4-(2-fluoropropan-2-yl)pyridin-2-yl)phenyl)ethyl)amino)-2-ethyl-2,3-dihydro-1H-pyrrolo[3,4-c]pyridin-1-one], the IC50 (at IDH1 R132H; on IDH1 R132C; in assay [1]) was < 100 nM in each case.

Turning to `CCN1Cc2c(ccnc2N[C@@H](C)c2cc(F)c(-c3cc(C(C)(C)F)cc(F)n3)cc2F)C1=O` [Compound 119, (S)-4-((1-(2,5-difluoro-4-(6-fluoro-4-(2-fluoropropan-2-yl)pyridin-2-yl)phenyl)ethyl)amino)-2-ethyl-2,3-dihydro-1H-pyrrolo[3,4-c]pyridin-1-one], the IC50 (on IDH1 R132H; at IDH1 R132C; in assay [1]) was < 100 nM each time.

Take `CCN1Cc2c(ccnc2N[C@@H](C)c2cc(F)c(-c3cc(C(C)(C)F)cc(OC)n3)cc2F)C1=O` [Compound 120, (S)-4-((1-(2,5-difluoro-4-(4-(2-fluoropropan-2-yl)-6-methoxypyridin-2-yl)phenyl)ethyl)amino)-2-ethyl-2,3-dihydro-1H-pyrrolo[3,4-c]pyridin-1-one]: the IC50 (at IDH1 R132H; on IDH1 R132C; in assay [1]) was < 100 nM each time.

As to `CCN1Cc2c(ccnc2N[C@@H](C)c2cc(F)c(-c3cc(C(F)(F)F)cc(Cl)n3)cc2F)C1=O` [Compound 121, (S)-4-((1-(4-(6-chloro-4-(trifluoromethyl)pyridin-2-yl)-2,5-difluorophenyl)ethyl)amino)-2-ethyl-2,3-dihydro-1H-pyrrolo[3,4-c]pyridin-1-one], the half-inhibitory concentration (IC50) on IDH1 R132H is < 100 nM; on IDH1 R132C it was 100 to 500 nM; in assay [1], 500 to 1000 nM.

Take `CCN1Cc2c(ccnc2N[C@@H](C)c2cc(F)c(-c3cc(C(F)(F)F)cc(C)n3)cc2F)C1=O` [Compound 122, (S)-4-((1-(2,5-difluoro-4-(6-methyl-4-(trifluoromethyl)pyridin-2-yl)phenyl)ethyl)amino)-2-ethyl-2,3-dihydro-1H-pyrrolo[3,4-c]pyridin-1-one]: the IC50 on IDH1 R132H is < 100 nM; at IDH1 R132C, < 100 nM; in assay [1] it was 100 to 500 nM.

Turning to `CCN1Cc2c(ccnc2N[C@@H](C)c2cc(F)c(-c3cc(C(F)(F)F)cc(CF)n3)cc2F)C1=O` [Compound 123, (S)-4-((1-(2,5-difluoro-4-(6-(fluoromethyl)-4-(trifluoromethyl)pyridin-2-yl)phenyl)ethyl)amino)-2-ethyl-2,3-dihydro-1H-pyrrolo[3,4-c]pyridin-1-one], the concentration for half-maximal inhibition (IC50) is < 100 nM at IDH1 R132H, < 100 nM on IDH1 R132C and 100 to 500 nM in assay [1].

`CCN1Cc2c(ccnc2N[C@@H](C)c2cc(F)c(-c3cc(C4(C(F)(F)F)CC4)ccn3)cc2F)C1=O` [Compound 124, (S)-4-((1-(2,5-difluoro-4-(4-(1-(trifluoromethyl)cyclopropyl)pyridin-2-yl)phenyl)ethyl)amino)-2-ethyl-2,3-dihydro-1H-pyrrolo[3,4-c]pyridin-1-one]: the IC50 (at IDH1 R132H; on IDH1 R132C; in assay [1]) was < 100 nM throughout.

Turning to `C/C=C(\c1ccnc(-c2cc(F)c([C@H](C)Nc3nccc4c3CN(CC)C4=O)cc2F)c1)C(F)(F)F` [Compound 125, (S,E)-4-((1-(2,5-difluoro-4-(4-(1,1,1-trifluorobut-2-en-2-yl)pyridin-2-yl)phenyl)ethyl)amino)-2-ethyl-2,3-dihydro-1H-pyrrolo[3,4-c]pyridin-1-one], the half-inhibitory concentration (IC50) (at IDH1 R132H; at IDH1 R132C; in assay [1]) was < 100 nM each time.

Take `CCN1Cc2c(ccnc2N[C@@H](C)c2cc(F)c(-c3cc(C4(C(F)(F)F)CC=NN4)ccn3)cc2F)C1=O` (stereo partly drawn) [Compound 126, 4-(((1S)-1-(2,5-difluoro-4-(4-(5-(trifluoromethyl)-4,5-dihydro-1H-pyrazol-5-yl)pyridin-2-yl)phenyl)ethyl)amino)-2-ethyl-2,3-dihydro-1H-pyrrolo[3,4-c]pyridin-1-one]: the 50% inhibitory concentration (IC50) at IDH1 R132H was < 100 nM; on IDH1 R132C it was 100 to 500 nM; in assay [1] it was 100 to 500 nM.

Take `CCN1Cc2c(ccnc2N[C@@H](C)c2cc(F)c(-c3cc(C(C)(C)F)c(C)cn3)cc2F)C1=O` [Compound 127, (S)-4-((1-(2,5-difluoro-4-(4-(2-fluoropropan-2-yl)-5-methylpyridin-2-yl)phenyl)ethyl)amino)-2-ethyl-2,3-dihydro-1H-pyrrolo[3,4-c]pyridin-1-one]: the concentration for half-maximal inhibition (IC50) (on IDH1 R132H; at IDH1 R132C; in assay [1]) was < 100 nM in each case.

Take `CCN1Cc2c(ccnc2N[C@@H](C)c2cc(F)c(-c3cc(NC(C)(C)C)cc(C)n3)cc2F)C1=O` [Compound 128, (S)-4-((1-(4-(4-(tert-butylamino)-6-methylpyridin-2-yl)-2,5-difluorophenyl)ethyl)amino)-2-ethyl-2,3-dihydro-1H-pyrrolo[3,4-c]pyridin-1-one]: the IC50 on IDH1 R132H is < 100 nM; at IDH1 R132C, 100 to 500 nM; in assay [1], 100 to 500 nM.

Take `CCN1Cc2c(ccnc2N[C@@H](C)c2cc(F)c(-c3cc(OC(C)(C)C)cc(C)n3)cc2F)C1=O` [Compound 129, (S)-4-((1-(4-(4-(tert-butoxy)-6-methylpyridin-2-yl)-2,5-difluorophenyl)ethyl)amino)-2-ethyl-2,3-dihydro-1H-pyrrolo[3,4-c]pyridin-1-one]: the IC50 (on IDH1 R132H; on IDH1 R132C; in assay [1]) was < 100 nM each time.

On to `CCN1Cc2c(ccnc2N[C@@H](C)c2cc(F)c(-c3cc(C(C)(C)F)ncn3)cc2F)C1=O` [Compound 130, (S)-4-((1-(2,5-difluoro-4-(6-(2-fluoropropan-2-yl)pyrimidin-4-yl)phenyl)ethyl)amino)-2-ethyl-2,3-dihydro-1H-pyrrolo[3,4-c]pyridin-1-one], for which the values for the concentration for half-maximal inhibition (IC50) (at IDH1 R132H; on IDH1 R132C; in assay [1]) were < 100 nM, 100 to 500 nM and 100 to 500 nM, respectively.

Take `CCN1Cc2c(ccnc2N[C@@H](C)c2cc(F)c(-c3cc(C4(F)CC4)cc(C)n3)cc2F)C1=O` [Compound 131, (S)-4-((1-(2,5-difluoro-4-(4-(1-fluorocyclopropyl)-6-methylpyridin-2-yl)phenyl)ethyl)amino)-2-ethyl-2,3-dihydro-1H-pyrrolo[3,4-c]pyridin-1-one]: the IC50 (on IDH1 R132H; at IDH1 R132C; in assay [1]) was < 100 nM each time.
